From ChEMBL document CHEMBL1137403, “Discovery of 2-[4-{{2-(2S,5R)-2-cyano-5-ethynyl-1-pyrrolidinyl]-2-oxoethyl]amino]- 4-methyl-1-piperidinyl]-4-pyridinecarboxylic acid (ABT-279): a very potent, selective, effective, and well-tolerated inhibitor of dipeptidyl peptidase-IV, useful for the treatment of diabetes” (J Med Chem, 2006)

Assays:
Dipeptidyl peptidase 8 = Dipeptidyl peptidase 8 (Homo sapiens, UniProt Q6V1X1)
Dipeptidyl peptidase 9 = Dipeptidyl peptidase 9 (Homo sapiens, UniProt Q86TI2)
Dipeptidyl peptidase 2 = Dipeptidyl peptidase 2 (Homo sapiens, UniProt Q9UHL4); test: Inhibition of DPP7
Prolyl endopeptidase = biological target: T1, Prolyl endopeptidase (Homo sapiens, UniProt P48147); test: Inhibition of POP
T1 sequence (P48147 whole entry): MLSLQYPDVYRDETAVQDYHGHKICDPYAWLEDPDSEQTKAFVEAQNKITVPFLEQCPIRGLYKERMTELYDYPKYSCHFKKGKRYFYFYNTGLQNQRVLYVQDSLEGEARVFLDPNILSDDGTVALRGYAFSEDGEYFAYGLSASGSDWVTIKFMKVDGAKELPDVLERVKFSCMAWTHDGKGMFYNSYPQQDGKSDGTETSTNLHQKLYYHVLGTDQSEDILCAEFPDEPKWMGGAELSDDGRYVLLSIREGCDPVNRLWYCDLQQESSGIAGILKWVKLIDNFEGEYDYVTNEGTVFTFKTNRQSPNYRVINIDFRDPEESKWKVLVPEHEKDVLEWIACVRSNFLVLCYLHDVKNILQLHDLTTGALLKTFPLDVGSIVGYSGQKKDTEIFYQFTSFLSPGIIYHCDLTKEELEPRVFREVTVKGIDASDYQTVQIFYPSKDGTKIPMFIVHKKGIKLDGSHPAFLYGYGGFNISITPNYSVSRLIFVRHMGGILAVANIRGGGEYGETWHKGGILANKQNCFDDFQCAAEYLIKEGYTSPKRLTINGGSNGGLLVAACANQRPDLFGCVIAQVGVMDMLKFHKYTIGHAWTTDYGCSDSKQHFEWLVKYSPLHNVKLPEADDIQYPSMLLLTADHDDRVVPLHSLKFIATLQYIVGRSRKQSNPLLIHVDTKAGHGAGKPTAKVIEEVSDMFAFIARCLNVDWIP

Prolyl endopeptidase FAP = biological target: T2, Prolyl endopeptidase FAP (Homo sapiens, UniProt Q12884); test: Inhibition of FAPalpha
T2 sequence (Q12884 whole entry): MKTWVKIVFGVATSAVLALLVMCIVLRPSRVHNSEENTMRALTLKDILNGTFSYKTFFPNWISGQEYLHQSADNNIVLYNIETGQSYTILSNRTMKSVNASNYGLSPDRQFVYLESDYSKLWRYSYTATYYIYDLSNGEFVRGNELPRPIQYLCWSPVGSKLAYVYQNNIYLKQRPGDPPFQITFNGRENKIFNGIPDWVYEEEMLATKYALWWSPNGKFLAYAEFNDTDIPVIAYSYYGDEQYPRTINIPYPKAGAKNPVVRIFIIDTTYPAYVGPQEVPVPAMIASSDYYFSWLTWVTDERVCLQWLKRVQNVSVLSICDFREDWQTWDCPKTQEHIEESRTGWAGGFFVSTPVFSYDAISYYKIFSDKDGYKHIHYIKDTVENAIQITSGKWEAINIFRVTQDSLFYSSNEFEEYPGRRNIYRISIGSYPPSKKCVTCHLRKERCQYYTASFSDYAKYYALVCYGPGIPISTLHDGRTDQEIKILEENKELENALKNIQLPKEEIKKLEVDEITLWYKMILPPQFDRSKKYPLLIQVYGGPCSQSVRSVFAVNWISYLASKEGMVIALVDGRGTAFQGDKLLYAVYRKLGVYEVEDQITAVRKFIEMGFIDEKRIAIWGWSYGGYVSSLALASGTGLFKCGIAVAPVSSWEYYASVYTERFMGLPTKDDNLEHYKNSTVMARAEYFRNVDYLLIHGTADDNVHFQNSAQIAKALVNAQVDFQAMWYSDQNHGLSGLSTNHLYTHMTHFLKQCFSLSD

Measured: Ki

Sequence of Dipeptidyl peptidase 8 (Q6V1X1 whole entry): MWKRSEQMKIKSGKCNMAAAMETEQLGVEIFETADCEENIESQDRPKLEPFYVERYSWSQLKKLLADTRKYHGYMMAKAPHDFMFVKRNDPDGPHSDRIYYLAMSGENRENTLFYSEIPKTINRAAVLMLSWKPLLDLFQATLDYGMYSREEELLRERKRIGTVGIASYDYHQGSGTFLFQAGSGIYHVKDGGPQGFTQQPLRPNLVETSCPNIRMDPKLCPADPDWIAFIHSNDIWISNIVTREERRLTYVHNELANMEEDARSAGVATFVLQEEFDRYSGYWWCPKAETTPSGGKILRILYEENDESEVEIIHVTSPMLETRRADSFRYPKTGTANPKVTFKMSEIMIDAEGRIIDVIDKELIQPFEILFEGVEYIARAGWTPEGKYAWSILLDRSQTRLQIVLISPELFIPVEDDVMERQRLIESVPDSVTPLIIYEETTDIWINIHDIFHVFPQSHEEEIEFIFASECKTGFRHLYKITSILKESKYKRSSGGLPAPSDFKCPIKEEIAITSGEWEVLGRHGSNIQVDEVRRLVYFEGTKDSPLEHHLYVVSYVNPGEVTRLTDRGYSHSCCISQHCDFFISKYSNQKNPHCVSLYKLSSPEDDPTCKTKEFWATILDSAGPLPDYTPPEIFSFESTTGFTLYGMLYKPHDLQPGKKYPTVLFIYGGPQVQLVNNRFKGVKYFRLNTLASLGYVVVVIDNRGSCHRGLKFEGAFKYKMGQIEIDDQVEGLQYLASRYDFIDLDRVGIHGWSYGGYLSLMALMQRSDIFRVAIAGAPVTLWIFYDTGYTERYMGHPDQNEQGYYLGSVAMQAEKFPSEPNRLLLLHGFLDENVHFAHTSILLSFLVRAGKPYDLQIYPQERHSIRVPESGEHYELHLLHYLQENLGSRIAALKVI
Sequence of Dipeptidyl peptidase 9 (Q86TI2 whole entry): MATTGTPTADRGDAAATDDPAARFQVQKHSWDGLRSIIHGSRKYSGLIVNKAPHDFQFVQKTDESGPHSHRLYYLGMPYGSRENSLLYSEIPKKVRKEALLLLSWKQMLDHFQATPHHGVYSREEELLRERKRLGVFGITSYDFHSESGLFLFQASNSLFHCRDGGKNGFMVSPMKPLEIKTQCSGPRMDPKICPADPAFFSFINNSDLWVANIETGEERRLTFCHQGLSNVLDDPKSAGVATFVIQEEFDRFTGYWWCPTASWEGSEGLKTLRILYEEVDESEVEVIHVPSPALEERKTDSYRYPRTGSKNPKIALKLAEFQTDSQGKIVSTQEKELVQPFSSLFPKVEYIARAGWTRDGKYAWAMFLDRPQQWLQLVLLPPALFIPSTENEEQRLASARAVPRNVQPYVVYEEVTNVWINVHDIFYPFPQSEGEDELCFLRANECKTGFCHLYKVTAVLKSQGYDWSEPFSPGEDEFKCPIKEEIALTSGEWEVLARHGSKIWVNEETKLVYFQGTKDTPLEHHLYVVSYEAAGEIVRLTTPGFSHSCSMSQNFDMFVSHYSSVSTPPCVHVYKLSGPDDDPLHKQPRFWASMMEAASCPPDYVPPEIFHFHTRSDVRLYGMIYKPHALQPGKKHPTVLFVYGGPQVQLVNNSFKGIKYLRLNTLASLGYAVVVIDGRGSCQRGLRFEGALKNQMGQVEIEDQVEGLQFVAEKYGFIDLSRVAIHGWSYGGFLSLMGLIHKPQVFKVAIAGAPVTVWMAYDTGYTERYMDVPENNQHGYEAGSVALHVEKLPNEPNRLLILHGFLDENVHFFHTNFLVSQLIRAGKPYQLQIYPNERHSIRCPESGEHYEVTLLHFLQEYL

C#C[C@H]1CC[C@@H](C#N)N1C(=O)CNC(C)(C)C
> 30 µM: Dipeptidyl peptidase 8 | Dipeptidyl peptidase 9

C#C[C@H]1CC[C@@H](C#N)N1C(=O)CNC1(C)CCN(c2ccc(C#N)cn2)CC1
> 30 µM: all assays above

C#C[C@H]1CC[C@@H](C#N)N1C(=O)[C@@H](N)C1CCCC1
> 30 µM: Dipeptidyl peptidase 9

C#C[C@H]1CC[C@@H](C#N)N1C(=O)CNC1(C)CCN(c2ccc(C(=O)O)cn2)CC1
> 30 µM: all assays above
